Assay results from publication PMC3656124, “DNA Topoisomerase II Is Involved in Regulation of Cyst Wall Protein Genes and Differentiation in Giardia lamblia” (PLoS Neglected Tropical Diseases, 2013).

Target: T1, Topo II (Giardia duodenalis, UniProt E2RU90)
T1 construct: gene GL50803_0016975
T1 sequence (E2RU90 1-1491): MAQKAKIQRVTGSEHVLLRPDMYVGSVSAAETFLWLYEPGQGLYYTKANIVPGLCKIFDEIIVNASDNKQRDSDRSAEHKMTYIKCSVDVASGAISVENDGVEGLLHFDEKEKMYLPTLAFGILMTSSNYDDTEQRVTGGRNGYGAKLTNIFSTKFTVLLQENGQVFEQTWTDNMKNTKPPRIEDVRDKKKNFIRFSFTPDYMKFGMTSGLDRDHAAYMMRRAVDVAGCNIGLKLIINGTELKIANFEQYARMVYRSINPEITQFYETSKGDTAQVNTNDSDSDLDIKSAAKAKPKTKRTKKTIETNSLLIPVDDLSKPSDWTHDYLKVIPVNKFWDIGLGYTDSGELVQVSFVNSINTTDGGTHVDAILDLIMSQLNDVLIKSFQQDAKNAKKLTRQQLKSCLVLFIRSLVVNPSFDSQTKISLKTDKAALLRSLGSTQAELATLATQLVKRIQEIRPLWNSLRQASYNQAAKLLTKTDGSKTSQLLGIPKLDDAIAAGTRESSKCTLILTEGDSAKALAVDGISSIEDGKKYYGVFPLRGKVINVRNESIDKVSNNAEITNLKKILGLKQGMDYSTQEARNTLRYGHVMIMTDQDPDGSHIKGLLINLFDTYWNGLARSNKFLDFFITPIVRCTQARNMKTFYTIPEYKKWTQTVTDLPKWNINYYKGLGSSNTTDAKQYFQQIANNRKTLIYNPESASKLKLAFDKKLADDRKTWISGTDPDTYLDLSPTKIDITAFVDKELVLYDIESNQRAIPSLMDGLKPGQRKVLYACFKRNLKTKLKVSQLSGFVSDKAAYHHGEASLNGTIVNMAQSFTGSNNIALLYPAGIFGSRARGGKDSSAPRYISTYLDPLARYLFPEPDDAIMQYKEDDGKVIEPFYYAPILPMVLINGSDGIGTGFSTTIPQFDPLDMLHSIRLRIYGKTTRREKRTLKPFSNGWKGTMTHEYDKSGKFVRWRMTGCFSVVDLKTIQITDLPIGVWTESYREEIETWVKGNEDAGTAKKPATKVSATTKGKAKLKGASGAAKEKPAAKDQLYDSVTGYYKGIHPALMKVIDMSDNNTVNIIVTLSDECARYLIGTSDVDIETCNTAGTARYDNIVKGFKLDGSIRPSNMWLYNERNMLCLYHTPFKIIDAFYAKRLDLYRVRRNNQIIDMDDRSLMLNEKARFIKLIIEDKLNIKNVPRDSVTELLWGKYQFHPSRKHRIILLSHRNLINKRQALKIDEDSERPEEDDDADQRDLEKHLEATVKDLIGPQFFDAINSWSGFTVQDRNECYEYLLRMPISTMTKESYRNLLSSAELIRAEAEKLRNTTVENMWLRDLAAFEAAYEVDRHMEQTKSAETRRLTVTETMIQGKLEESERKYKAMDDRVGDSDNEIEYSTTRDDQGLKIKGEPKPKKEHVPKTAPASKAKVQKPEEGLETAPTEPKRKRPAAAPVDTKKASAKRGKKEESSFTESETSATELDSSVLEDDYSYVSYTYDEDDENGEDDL
Assay: pUC119 plasmid DNA cleavage assay, agarose gel
Assay type: biochemical
Settings: 12 mM etoposide in Me2SO (Me2SO alone also raised cleavage); 5 mM Mg2+, pH 7.5, 37 °C; traps cleavage complex

Q: How did the “increase of DNA cleavage activity” value turn out when `COc1cc([C@@H]2c3cc4c(cc3[C@@H](O[C@@H]3O[C@@H]5CO[C@@H](C)O[C@H]5[C@H](O)[C@H]3O)[C@H]3COC(=O)[C@H]23)OCO4)cc(OC)c1O` [etoposide] was run?
A: addition of etoposide slightly increased DNA cleavage activity of Topo II
